This note sets out measurements from the pKa sets of Baltruschat and Czodrowski (2020).

Molecule `CN(CCN)CC[NH+](C)C` had a pKa (basic group) of 9.23.

As to `CCC(=O)C(CCN1CCCCC1)(c1ccccc1)c1ccccc1`, the pKa (basic group) turned out to be 8.86.

Under “basic group”, `C[C@@H]1CN[C@@H](C)CN1` displayed a pKa of 9.76.

Consider `CCCNCc1ccc(C)cc1`, for which, for the setting “basic group”, the pKa was 9.98.

The molecule `CC1(C)[C@H]2CC[C@@]1(C)[C@@H](O)[C@@H]2C(=O)O` came in with a pKa (acidic group) of 2.74.

Take `Nc1ccc2nc3ccc(N)cc3cc2c1`: the pKa (basic group) amounted to 6.18.

Consider `CC(C)(S)C(C(=O)O)n1cc[nH+]c1Cc1ccccc1` (configuration not stated), for which the pKa (acidic group) was found to be 1.8.

`CC(=O)N1C[C@@]2(C(C)C)OC(=O)C[C@H]2[C@@H]1C(=O)O`: where the note is “acidic group”, the pKa is 3.2.

`CCN(CC)CC(=O)[O-]` returned a pKa (basic group) of 10.5.

Molecule `Oc1ccccc1/C=N/c1ncc2nc[nH]c2n1` gave a pKa (acidic group) of 9.19 and a pKa (basic group) of 3.38.

As to `CC(C)(C)CNc1ccccc1`, for the setting “basic group”, the pKa turned out to be 4.17.

Molecule `CN(C)/C=N/c1ccccc1` gave a pKa (basic group) of 9.

In the case of `CC(O)=C(C#N)C#N`, the pKa (acidic group) worked out at 1.

Turning to `CC(C(=O)O)C(C#N)c1ccccc1` (configuration not stated), the pKa (acidic group) is 3.7.

For `[S-]c1ccc2ccccc2n1`, the pKa (basic group) stood at 10.2.

With `CC1(C)CC(=O)CC(=O)C1`, under “acidic group”, the pKa was 5.21.

Under “basic group”, `CC[NH+](CC)CCNc1cc(Nc2ccc(Cl)cc2)nc(C)n1` registered a pKa of 5.42.

Turning to `CCc1cccnc1`, the pKa (basic group) was found to be 5.57. This pKa and that of the molecule before are within 0.2 log units of each other.

Take `NC(=O)CCCc1cccnc1`: the pKa (basic group) was 5.33.

In turn, `CC[NH+](CC)CCCCCCCC(C)Nc1c2ccc(Cl)cc2nc2ccc(OC)cc12` (configuration not stated) returned a pKa (basic group) of 8.

Under “acidic group”, `CCc1nnc(CC)n1N` returned a pKa of 9.77.

For the molecule `Nc1ccc(-c2nc3ccccc3s2)cc1`, the pKa (basic group) was found to be 3.

Take `C=C(C)[C@@H]1CN(C(C)=O)[C@H](C(=O)OC)[C@@H]1CC(=O)O`: where the note is “acidic group”, the pKa is 4.6.

Regarding `COC(=O)c1ccccc1-n1nc(O)cc1C`, the pKa (acidic group) is 12.3.

As for `Cc1cnc(C)cn1`, the pKa (basic group) turned out to be 1.95.

`CC1=NS(=O)(=O)c2cnccc2N1` yielded a pKa (acidic group) of 7.6.

For the molecule `CCOC(=O)Nc1nnc(-c2ccccc2)s1`, the pKa (acidic group) came to 8.2.

`CN1C(=O)C2(CCCCC2)NC1=S` had a pKa (acidic group) of 11.2.

Turning to `COc1nc2ccccc2nc1OC`, the pKa (basic group) was -1.15.

`O=C(CC(=O)c1ccc([N+](=O)[O-])cc1)Nc1ccccc1` yielded a pKa (acidic group) of 8.7.

In the case of `CCNCC(=O)Nc1c(C)cccc1C`, under “basic group”, the pKa is 8.06.

In turn, `Cc1ccc([Se]CC(=O)O)cc1` came in with a pKa (acidic group) of 3.86.

The molecule `N[C@@H]1CCCC[C@@H]1O` had a pKa (basic group) of 9.72.

On to `CC(=O)ONc1cc(=O)n(C)c(=O)n1C`, for which the pKa (acidic group) is 7.01.

Consider `Nc1ccc(S(=O)(=O)Nc2cccnn2)cc1`, for which the pKa runs as follows: (acidic group) 7.06; (basic group) 1.3.

As to `CCCCCCCCCCCCCCN(CC(C)O)CC(C)O` (configuration not stated), the pKa (basic group) was 8.4.

In turn, `C[NH+](C)Cc1cc(Cl)cc(C[NH+](C)C)c1O` yielded a pKa (acidic group) of 5.2.

Consider `CN(C)c1ccc2c(c1)Sc1cc(N(C)C)ccc1N2`, for which the pKa (basic group) was determined as 5.53.

`CC(N)c1ccccc1` (configuration not stated) registered a pKa (basic group) of 9.36.

`CSc1ccc2ccccc2n1` gave a pKa (basic group) of 3.71.

For `CC(=O)C[N+](=O)[O-]`, the pKa (acidic group) was 5.1.

`O=[N+]([O-])c1ccc(/C(=N\O)c2ccccc2)cc1` showed a pKa (acidic group) of 10.8.

Under “acidic group”, `[O-]c1ccc(/C=N/O)cc1` returned a pKa of 12.

In turn, `O=[N+]([O-])c1ccc(NO)cc1` gave a pKa (basic group) of 0.65.

`CC(C)(N)C(C)(C)N` displayed a pKa (basic group) of 10.1.

As for `Cc1cc(-c2ccccc2)nn2cc(CN3CCOCC3)nc12`, the pKa (basic group) came to 6.3.

Where the note is “basic group”, `CCOCCn1c(CN2CC[NH+](CCCCn3cccn3)CC2)nc2ccccc21` registered a pKa of 4.8.

Regarding `CCCSC(=N)c1ccccc1`, the pKa (basic group) is 8.1.

Turning to `CC(C)N(CC1CO1)CC1CO1` (configuration not stated), where the note is “basic group”, the pKa is 7.07.

Turning to `COc1ccc(NC(=S)c2ccccc2)cc1`, the pKa (acidic group) came to 11.4.

Consider `C#CC(CC)(CC)N(C)C(C)C`, for which the pKa (basic group) came to 8.8.

For the molecule `CSc1ccc(N)cc1`, the pKa (basic group) is 4.4.

In turn, `O=C(O)c1cnoc1` returned a pKa (acidic group) of 3.39.

Where the note is “basic group”, `CC(C)/[NH+]=C/N(C)c1ccc(-c2c[nH]cn2)cc1` showed a pKa of 5.25.

In turn, `CCC(=O)C(CC(C)N1CCCCC1)(c1ccccc1)c1ccccc1` (configuration not stated) displayed a pKa (basic group) of 8.58.

In turn, `Nc1ccc(NS(=O)(=O)c2ccccc2)cc1` registered a pKa (acidic group) of 9.05.

`CNc1nc(O)[n+]([C@@H]2C[C@@H](O)[C@H](CO)O2)cc1C` yielded a pKa (acidic group) of 4.04.

On to `CCN(C)CC`, for which the pKa (basic group) was found to be 10.4.

In the case of `Cc1ccc(=O)c(O)c(Br)c1`, the pKa (acidic group) is 6.41.

In the case of `Cc1ccc(S(=O)(=O)[N-]CCC(=N)N(C)C)cc1`, for the setting “basic group”, the pKa worked out at 11.4.

Turning to `Oc1ccc(OCc2ccccc2)cc1`, the pKa (acidic group) worked out at 10.5.

In the case of `Oc1ccc2c(c1)ncc1ccccc12`, the pKa reads like this: (acidic group) 8.79; (basic group) 4.82.

In the case of `C=Cc1ccc(O)cc1`, the pKa (acidic group) was 9.91.

Take `[O-]c1ncccn1`: for the setting “basic group”, the pKa is 9.17.

Regarding `Nc1ccc(CC(=O)[O-])cc1`, for the setting “basic group”, the pKa came to 5.2.

`CCOC(=O)COc1ccc(C(=O)c2ccc(O)c(C[NH3+])c2)cc1` had a pKa (acidic group) of 7.34.

`CCOC(=O)c1ccc(O)c([N+](=O)[O-])c1` gave a pKa (acidic group) of 5.44.

For the molecule `CCCCn1ccnc1`, the pKa (basic group) came to 7.14.

For the setting “basic group”, `Cc1cccc(N)c1` had a pKa of 4.7.

By pKa is commonly meant the pH at which an ionisable group is half protonated. Read a high pKa as a group that holds its proton tightly.
